Structures are written as SMILES.

One test deals with BRD4-BD12 (1-477) (Homo sapiens (Human), UniProt O60885). Briefly: Alphascreen binding assay BRD4-BD12. The settings on record: BRD4(1 2) H4; read-out: Biochemical activity (IC50 μM) BRD4(1 2) H4. The protocol:
Binding of compounds of formula (I) with bromodomain 2, 3 4 was assessed using Alphascreen binding assay. The inhibition of the interaction between bromodomain and its acetylated target protein (Filippakopoulos P et al. 2012) was measured quantitatively using recombinant BRD proteins, an acetylated Histone 4 peptide and AlphaScreen™ technology. In absence of inhibition the BRD protein bound to AlphaScreen™ nickel chelate acceptor beads can interact with the acetylated Histone 4 peptide which is immobilized by the AlphaScreen™ Streptavidin coated beads. This interaction brings donor and acceptor beads in proximity. The close proximity allows the singlet oxygen produced by laser excitation of the donor beads to reach the acceptor beads and generate a luminescence signal.
Recombinant human bromodomains containing the N-terminal bromodomain (BRD2-BD1 (71-194), BRD3-BD1 (24-144) and BRD4-BD1 (44-164)) or dual bromodomains (BRD4-BD12 (1-477), BRD4-BD12 (1-472)) were prepared and purified as described in protein expression and purification session. The peptide is human Histone H41-21K5AcK8AcK12AcK16Ac-Biotin (Anaspec CA, USA).
Protocol for BRD2, BRD3 and BRD4 assay: All components are prepared in buffer composed of 50 mM HEPES pH 7.5, 100 mM NaCl, 0.01% bovine serum albumin (“BSA”), 0.01% Triton X-100, 2 mM dithiothreitol (“DTT”). 7 μL of Bromodomain protein and 7 μL of peptide are added to wells containing 1 μL of various concentrations of test compounds of formula (I) or DMSO vehicle in an Alphaplate (PerkinElmer GA, USA) and incubated for 1 hour at room temperature. 4 μL donor and acceptor bead mixture is then added with final concentrations of 7.5 μg/ml. 30 minutes after bead addition, Alpha signal is read on the Envision spectrometer (λEx 680 nm, λEm 520-620 nm). Final concentrations of bromodomain proteins and peptide are as shown below.
All data was normalized to the mean of 16 high and 16 low control wells on each plate. A four parameter curve fit of the following formula was then applied: Y=a+(b−a)/(1+(x/c)^d) Where ‘a’ is the minimum, ‘b’ is the maximum, ‘c’ is the pIC50 and ‘d’ is the Hill slope. Protein Expression and Purification
Recombinant human bromodomains containing the N-terminal bromodomain (BRD2-BD1 (71-194), BRD3-BD1 (24-144) and BRD4-BD1 (44-164)) or dual bromodomains (BRD4-BD12 (1-477), BRD4-BD12 (1-472)) were expressed in E. coli cells (in a modified pET vector) with an N-terminal six-His tag and purified using a combination of both IMAC (Ni-affinity) and size exclusion chromatography steps.
Recombinant BRD proteins were expressed using the E. coli strain BL21-CodonPlus (DE3) (Agilent Technologies CA, USA). Cells were grown in Terrific Broth (TB) media to an OD600 of 1.2 at 37° C. at which temperature was reduced to 25° C., protein was induced with 1.0 mM ispropyl-β-D-thiogalactopyranoside (“IPTG”) for 12-18 hours and harvested by centrifugation at 8000×g for 20 minutes. Cells were re-suspended in 0.1M K2PO4 pH 8.0, 250 mM NaCl, 10% Glycerol, 0.75% NP-40, 25 mM Imidazole, 5 mM beta-mercaptoethanol (“BME”) with 0.2 mg/ml Lysosyme, 2.0 mM phenylmethanesulfonyl fluoride (“PMSF”), 25 μg/ml DNAse I, incubated on ice for 30 minutes and lyzed with a cell disruptor (MicroFluidics MA, USA). The lysate was clarified by centrifugation at 20,000×g for 2 hours. The protein was captured with Ni-NTA resin (Life Technologies, USA). Contaminating proteins were washed off with 25 mM Tris-HCl pH 8.3, 250 mM NaCl, 12% Glycerol and 50 mM Imidazole. Following 3× wash steps, protein was eluted step wise using a 50 mM HEPES pH 7.5, 500 mM NaCl and 400 mM Imidazole. The protein was further purified using Gel Filtration column 26/600 Superdex 200 (GE Biosciences NJ, USA) in 50 mM HEPES pH 7.5, 250 mM NaCl. The protein was aliquoted and flash-frozen in liquid Nitrogen.

The test system of a further test is MV-4-11 cells. Briefly: Oncology cell growth assay MV-4-11 (CellTiter Glo). The class given is cell-based. As to conditions: Homo sapiens, MV4-11, 72 h; MV-4-11, 3d growth; read-out: Cell activity (IC50 μM) MV-4-11 3d-Growth. The essentials: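 MV-4-11 AML cells (MLL-AF4), 3000 per well, exposed to 8-point 1:3 compound titration from 10 μM top concentration (0.2% DMSO) for 72 h. Viability by CellTiter Glo luminescence, normalized to DMSO controls; pIC50 from four-parameter curve fit.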
(In general: In ATP-based viability assays light output follows the ATP content of the culture.)

With `Cc1noc(C)c1-c1cnc2c(I)cn(Cc3ccncc3)c2c1` [P-0935, 4-[3-iodo-1-(4-pyridylmethyl)pyrrolo[3,2-b]pyridin-6-yl]-3,5-dimethyl-isoxazole], the IC50 on BRD4-BD12 (1-477) and with MV-4-11 cells was less than 1 µM in each case.

On to `COC(=O)c1ccc(-c2cn(Cc3ccncc3)c3cc(-c4c(C)noc4C)cnc23)cc1` [P-0936, methyl 4-[6-(3,5-dimethylisoxazol-4-yl)-1-(4-pyridylmethyl)pyrrolo[3,2-b]pyridin-3-yl]benzoate], for which the IC50 on BRD4-BD12 (1-477) and in the test on MV-4-11 cells was less than 1 µM each time.

Consider `Cc1noc(C)c1-c1cnc2c(-c3ccc(C(=O)O)cc3)cn(Cc3ccncc3)c2c1` [P-0937, 4-[6-(3,5-dimethylisoxazol-4-yl)-1-(4-pyridylmethyl)pyrrolo[3,2-b]pyridin-3-yl]benzoic acid], for which the IC50 on BRD4-BD12 (1-477) and with MV-4-11 cells was less than 1 µM throughout.

For the compound `COc1cc(-c2cn([C@@H](C)c3ccccn3)c3cc(-c4c(C)noc4C)cnc23)ccc1C(=O)O` [P-0938, 4-[6-(3,5-dimethylisoxazol-4-yl)-1-[(1S)-1-(2-pyridyl)ethyl]pyrrolo[3,2-b]pyridin-3-yl]-2-methoxy-benzoic acid], the IC50 at BRD4-BD12 (1-477) and in the test on MV-4-11 cells was less than 1 µM throughout.

Take `COC(=O)c1ccc(-c2cn(Cc3cccc(C)n3)c3cc(-c4c(C)noc4C)cnc23)cc1OC` [P-0939, methyl 4-[6-(3,5-dimethylisoxazol-4-yl)-1-[(6-methyl-2-pyridyl)methyl]pyrrolo[3,2-b]pyridin-3-yl]-2-methoxy-benzoate]: the 50% inhibitory concentration (IC50) at BRD4-BD12 (1-477) and with MV-4-11 cells was less than 1 µM each time.

With `Cc1noc(C)c1-c1cnc2c(C#N)cn(C(c3ccccc3)c3ccccn3)c2c1` (stereo not shown) [P-0940, 6-(3,5-dimethylisoxazol-4-yl)-1-[phenyl(2-pyridyl)methyl]pyrrolo[3,2-b]pyridine-3-carbonitrile], the half-inhibitory concentration (IC50) on BRD4-BD12 (1-477) and in the test on MV-4-11 cells was less than 1 µM throughout.

With `COc1cc(-c2cn(Cc3cccc(C)n3)c3cc(-c4c(C)noc4C)cnc23)ccc1C(=O)O` [P-0941, 4-[6-(3,5-dimethylisoxazol-4-yl)-1-[(6-methyl-2-pyridyl)methyl]pyrrolo[3,2-b]pyridin-3-yl]-2-methoxy-benzoic acid], the IC50 at BRD4-BD12 (1-477) and in the test on MV-4-11 cells was less than 1 µM throughout.

For `COC(=O)C1(c2ccc(-c3cn([C@@H](C)c4ccccn4)c4cc(-c5c(C)noc5C)cnc34)cc2)CC1` [P-0942, methyl 1-[4-[6-(3,5-dimethylisoxazol-4-yl)-1-[(1S)-1-(2-pyridyl)ethyl]pyrrolo[3,2-b]pyridin-3-yl]phenyl]cyclopropanecarboxylate], the IC50 at BRD4-BD12 (1-477) and in the test on MV-4-11 cells was less than 1 µM throughout.

For `Cc1noc(C)c1-c1cnc2c(-c3ccc(C4(C(=O)O)CC4)cc3)cn(CC3(C)CCOCC3)c2c1` [P-0943, 1-[4-[6-(3,5-dimethylisoxazol-4-yl)-1-[(4-methyltetrahydropyran-4-yl)methyl]pyrrolo[3,2-b]pyridin-3-yl]phenyl]cyclopropanecarboxylic acid], the concentration for half-maximal inhibition (IC50) at BRD4-BD12 (1-477) is less than 1 µM; in the test with MV-4-11 cells, 1 to 10 µM.

As to `Cc1noc(C)c1-c1cnc2c(-c3ccc(C#N)nc3)cn(CC3(C)CCOCC3)c2c1` [P-0944, 5-[6-(3,5-dimethylisoxazol-4-yl)-1-[(4-methyltetrahydropyran-4-yl)methyl]pyrrolo[3,2-b]pyridin-3-yl]pyridine-2-carbonitrile], the IC50 on BRD4-BD12 (1-477) and in the test on MV-4-11 cells was less than 1 µM throughout.

Consider `Cc1noc(C)c1-c1cnc2c(-c3cnn(C)c3)cn(CC3(C)CCOCC3)c2c1` [P-0945, 3,5-dimethyl-4-[3-(1-methylpyrazol-4-yl)-1-[(4-methyltetrahydropyran-4-yl)methyl]pyrrolo[3,2-b]pyridin-6-yl]isoxazole], for which the IC50 at BRD4-BD12 (1-477) and in the test with MV-4-11 cells was less than 1 µM throughout.

For the compound `Cc1noc(C)c1-c1cnc2c(-c3ccc(C(C)(C)C#N)cc3)cn(CC3(C)CCOCC3)c2c1` [P-0946, 2-[4-[6-(3,5-dimethylisoxazol-4-yl)-1-[(4-methyltetrahydropyran-4-yl)methyl]pyrrolo[3,2-b]pyridin-3-yl]phenyl]-2-methyl-propanenitrile], the IC50 at BRD4-BD12 (1-477) and in the test with MV-4-11 cells was less than 1 µM in each case.

Turning to `Cc1noc(C)c1-c1cnc2c(I)cn(Cc3ncccc3F)c2c1` [P-0947, 4-[1-[(3-fluoro-2-pyridyl)methyl]-3-iodo-pyrrolo[3,2-b]pyridin-6-yl]-3,5-dimethyl-isoxazole], the IC50 on BRD4-BD12 (1-477) and in the test on MV-4-11 cells was less than 1 µM each time.

Take `COC(=O)c1ccc(-c2cn(Cc3ncccc3F)c3cc(-c4c(C)noc4C)cnc23)cc1` [P-0948, methyl 4-[6-(3,5-dimethylisoxazol-4-yl)-1-[(3-fluoro-2-pyridyl)methyl]pyrrolo[3,2-b]pyridin-3-yl]benzoate]: the IC50 at BRD4-BD12 (1-477) and in the test on MV-4-11 cells was less than 1 µM each time.

Turning to `Cc1noc(C)c1-c1cnc2c(-c3ccc(C(=O)O)cc3)cn(Cc3ncccc3F)c2c1` [P-0949, 4-[6-(3,5-dimethylisoxazol-4-yl)-1-[(3-fluoro-2-pyridyl)methyl]pyrrolo[3,2-b]pyridin-3-yl]benzoic acid], the IC50 on BRD4-BD12 (1-477) and in the test on MV-4-11 cells was less than 1 µM in each case.

With `COC(=O)c1ccc(-n2cc(P(=O)(c3ccccc3)c3ccccc3)c3cc(-c4c(C)noc4C)cnc32)cc1` [P-0950, methyl 4-[5-(3,5-dimethylisoxazol-4-yl)-3-diphenylphosphoryl-pyrrolo[2,3-b]pyridin-1-yl]benzoate], the IC50 at BRD4-BD12 (1-477) and in the test with MV-4-11 cells was less than 1 µM throughout.

In the case of `Cc1noc(C)c1-c1cnc2c(c1)c(P(=O)(c1ccccc1)c1ccccc1)cn2-c1ccc(C(=O)O)cc1` [P-0951, 4-[5-(3,5-dimethylisoxazol-4-yl)-3-diphenylphosphoryl-pyrrolo[2,3-b]pyridin-1-yl]benzoic acid], the half-maximal inhibitory concentration (IC50) at BRD4-BD12 (1-477) and with MV-4-11 cells was less than 1 µM throughout.

With `COC(=O)C1(c2ccc(-c3cn(Cc4ccccn4)c4cc(-c5c(C)noc5C)cnc34)cc2)CC1` [P-0952, methyl 1-[4-[6-(3,5-dimethylisoxazol-4-yl)-1-(2-pyridylmethyl)pyrrolo[3,2-b]pyridin-3-yl]phenyl]cyclopropanecarboxylate], the concentration for half-maximal inhibition (IC50) at BRD4-BD12 (1-477) and in the test on MV-4-11 cells was less than 1 µM each time.

With `COc1cc(-c2cn(Cc3ccccn3)c3cc(-c4c(C)noc4C)cnc23)ccc1C(=O)O` [P-0953, 4-[6-(3,5-dimethylisoxazol-4-yl)-1-(2-pyridylmethyl)pyrrolo[3,2-b]pyridin-3-yl]-2-methoxy-benzoic acid], the half-inhibitory concentration (IC50) on BRD4-BD12 (1-477) and in the test with MV-4-11 cells was less than 1 µM each time.

Take `Cc1noc(C)c1-c1cnc2c(-c3ccc(C4(C(=O)O)CC4)cc3)cn([C@@H](C)c3ccccn3)c2c1` [P-0955, 1-[4-[6-(3,5-dimethylisoxazol-4-yl)-1-[(1S)-1-(2-pyridyl)ethyl]pyrrolo[3,2-b]pyridin-3-yl]phenyl]cyclopropanecarboxylic acid]: the IC50 on BRD4-BD12 (1-477) and in the test on MV-4-11 cells was less than 1 µM throughout.

Usually IC50 stands for the point on the concentration scale where inhibition reaches its midpoint.

Source of the values: patent publication US10519177B2, “Heterocyclic compounds and uses thereof” (Plexxikon Inc., priority 2013, dated 2019).
